The values that follow come from ChEMBL document CHEMBL1201862, “PubChem BioAssay data set” (2004).

Calls of active or inactive are those of the source.

Among the targets are Cytochrome P450 3A4 (Homo sapiens, UniProt P08684); Cytochrome P450 2C9 (Homo sapiens, UniProt P11712); Cytochrome P450 2D6 (Homo sapiens, UniProt P10635).
Another test addresses T1, Cytochrome P450 1A2 (Homo sapiens, UniProt P05177).
T1 sequence (P05177 whole entry): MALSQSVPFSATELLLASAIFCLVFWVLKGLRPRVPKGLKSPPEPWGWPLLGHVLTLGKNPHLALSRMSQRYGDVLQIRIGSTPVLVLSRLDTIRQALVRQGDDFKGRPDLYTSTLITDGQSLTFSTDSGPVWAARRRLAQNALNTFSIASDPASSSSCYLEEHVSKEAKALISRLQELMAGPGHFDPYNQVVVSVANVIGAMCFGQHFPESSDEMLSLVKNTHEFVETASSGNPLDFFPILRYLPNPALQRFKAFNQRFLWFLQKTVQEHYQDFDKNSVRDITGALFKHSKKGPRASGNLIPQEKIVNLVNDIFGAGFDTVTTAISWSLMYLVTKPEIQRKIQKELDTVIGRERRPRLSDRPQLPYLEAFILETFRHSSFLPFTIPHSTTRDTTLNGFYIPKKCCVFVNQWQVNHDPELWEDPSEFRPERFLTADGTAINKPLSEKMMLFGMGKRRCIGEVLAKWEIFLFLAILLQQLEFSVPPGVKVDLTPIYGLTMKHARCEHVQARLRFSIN

Test [1] has as its target T2, Rac GTPase-activating protein 1 (Homo sapiens, UniProt Q9H0H5).
T2 sequence (Q9H0H5 whole entry): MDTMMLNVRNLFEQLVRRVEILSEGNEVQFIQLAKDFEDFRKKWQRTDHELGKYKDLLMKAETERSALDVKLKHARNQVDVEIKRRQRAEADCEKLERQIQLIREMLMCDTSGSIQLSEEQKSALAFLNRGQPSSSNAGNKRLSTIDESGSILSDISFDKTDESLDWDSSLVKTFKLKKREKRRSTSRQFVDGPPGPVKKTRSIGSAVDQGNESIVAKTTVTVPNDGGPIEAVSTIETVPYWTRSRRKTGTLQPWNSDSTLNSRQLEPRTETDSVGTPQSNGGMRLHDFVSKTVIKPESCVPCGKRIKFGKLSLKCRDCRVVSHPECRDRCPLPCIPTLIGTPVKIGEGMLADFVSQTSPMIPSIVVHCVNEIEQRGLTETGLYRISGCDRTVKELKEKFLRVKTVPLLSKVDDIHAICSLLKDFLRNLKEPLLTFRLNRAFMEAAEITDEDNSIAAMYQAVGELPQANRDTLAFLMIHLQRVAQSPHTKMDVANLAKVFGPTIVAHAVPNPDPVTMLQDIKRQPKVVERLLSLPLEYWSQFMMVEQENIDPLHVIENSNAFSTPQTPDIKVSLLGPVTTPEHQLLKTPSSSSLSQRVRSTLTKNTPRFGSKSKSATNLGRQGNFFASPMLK
Nature of the test: MgcRacGAP GTPase-activating activity inhibitors, confirmation, biochemical, ADP Hunter fluorescence, primary and confirmatory (AID 624330). The test is classed as functional.

The target of a further test is Cytochrome P450 2C19 (Homo sapiens, UniProt P33261). Nature of the test: Cytochrome panel assay with activity outcomes. Panel member name: p450-cyp2c19 Compounds with AC50 equal or less than 10 uM are considered active. Conditions: read-out: AC50. The test is classed as functional.
Test [2] has as its target T3, Corticotropin-releasing factor receptor 2/Corticotropin-releasing factor-binding protein (Homo sapiens, UniProt P24387+Q13324).
T3 sequence (Q13324 whole entry): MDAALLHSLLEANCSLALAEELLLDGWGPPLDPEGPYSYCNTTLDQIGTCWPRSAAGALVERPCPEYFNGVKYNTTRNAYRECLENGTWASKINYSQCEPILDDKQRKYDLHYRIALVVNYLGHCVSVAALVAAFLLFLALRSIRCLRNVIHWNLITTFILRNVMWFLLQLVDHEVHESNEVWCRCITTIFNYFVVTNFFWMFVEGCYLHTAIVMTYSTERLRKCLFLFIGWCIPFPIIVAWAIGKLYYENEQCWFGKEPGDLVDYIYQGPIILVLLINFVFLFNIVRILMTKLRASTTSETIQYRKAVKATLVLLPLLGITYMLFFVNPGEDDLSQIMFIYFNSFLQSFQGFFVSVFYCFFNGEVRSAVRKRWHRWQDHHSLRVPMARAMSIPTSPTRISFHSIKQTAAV
T3 sequence (P24387 whole entry): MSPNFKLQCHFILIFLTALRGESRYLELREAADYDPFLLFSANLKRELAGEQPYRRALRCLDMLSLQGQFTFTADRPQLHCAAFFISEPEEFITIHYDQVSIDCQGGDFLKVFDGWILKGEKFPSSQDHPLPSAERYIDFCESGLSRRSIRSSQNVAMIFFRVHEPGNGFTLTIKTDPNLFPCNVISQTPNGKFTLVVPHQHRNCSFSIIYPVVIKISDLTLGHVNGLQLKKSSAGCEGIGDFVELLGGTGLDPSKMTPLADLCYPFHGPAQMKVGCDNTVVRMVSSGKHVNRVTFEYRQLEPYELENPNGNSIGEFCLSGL
Put plainly: activators of CRF receptor 2 with binding protein – uHTS hits, confirmation (AID 602473). Conditions: read-out: EC50_Mean. The test is classed as functional.

The subject of test [3] is Streptococcus sp. 'group A'. Nature of the test: growth inhibition of control SK(-) GAS strain, dose response, counter-screen for streptokinase expression inhibitor project, luminescence, kanamycin, BacTiterGlo, confirmation (AID 1900). The test is classed as functional, organism-based.
A further test deals with Streptococcus. Nature of the test: Group A Streptococcus viability loss, dose response, counter-screen for streptokinase expression inhibitor project, luminescence, BacTiterGlo (AID 1915).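 Further: potency for reduction of bacterial viability or growth.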 The test is classed as functional, organism-based.
The nature of test [4]: Luminescence Cell-Based Dose Retest to Confirm Inhibitors of Cancer Stem Cells. [Related pubchem assays (depositor defined):AID2717, AID2721]. Conditions: Homo sapiens. The test is classed as functional.

Sequence of Cytochrome P450 3A4 (P08684 whole entry): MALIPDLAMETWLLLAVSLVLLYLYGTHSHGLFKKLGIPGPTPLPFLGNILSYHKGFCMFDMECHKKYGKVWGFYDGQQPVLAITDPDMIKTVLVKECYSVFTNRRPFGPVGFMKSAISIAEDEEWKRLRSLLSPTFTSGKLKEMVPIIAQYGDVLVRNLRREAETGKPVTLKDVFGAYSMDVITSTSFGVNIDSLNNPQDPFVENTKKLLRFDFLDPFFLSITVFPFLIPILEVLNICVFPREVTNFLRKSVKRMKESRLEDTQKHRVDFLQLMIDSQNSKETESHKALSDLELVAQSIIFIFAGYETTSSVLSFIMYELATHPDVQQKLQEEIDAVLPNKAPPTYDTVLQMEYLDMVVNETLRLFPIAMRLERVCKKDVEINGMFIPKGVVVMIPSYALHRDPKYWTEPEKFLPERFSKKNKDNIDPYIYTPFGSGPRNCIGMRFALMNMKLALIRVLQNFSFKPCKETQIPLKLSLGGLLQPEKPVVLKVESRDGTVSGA
Sequence of Cytochrome P450 2C19 (P33261 whole entry): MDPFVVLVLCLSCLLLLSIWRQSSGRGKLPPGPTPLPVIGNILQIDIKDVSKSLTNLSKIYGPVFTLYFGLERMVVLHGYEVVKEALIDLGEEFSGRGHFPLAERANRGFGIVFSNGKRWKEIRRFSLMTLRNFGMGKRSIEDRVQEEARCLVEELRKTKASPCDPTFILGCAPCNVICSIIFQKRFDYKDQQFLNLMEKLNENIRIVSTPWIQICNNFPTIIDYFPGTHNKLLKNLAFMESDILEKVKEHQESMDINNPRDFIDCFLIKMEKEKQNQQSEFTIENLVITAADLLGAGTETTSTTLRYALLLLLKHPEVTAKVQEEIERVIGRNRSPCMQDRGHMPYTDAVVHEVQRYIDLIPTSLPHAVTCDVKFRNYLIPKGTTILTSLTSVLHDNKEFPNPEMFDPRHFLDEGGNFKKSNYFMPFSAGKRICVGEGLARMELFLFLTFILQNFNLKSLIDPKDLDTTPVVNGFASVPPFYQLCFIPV
Sequence of Cytochrome P450 2C9 (P11712 whole entry): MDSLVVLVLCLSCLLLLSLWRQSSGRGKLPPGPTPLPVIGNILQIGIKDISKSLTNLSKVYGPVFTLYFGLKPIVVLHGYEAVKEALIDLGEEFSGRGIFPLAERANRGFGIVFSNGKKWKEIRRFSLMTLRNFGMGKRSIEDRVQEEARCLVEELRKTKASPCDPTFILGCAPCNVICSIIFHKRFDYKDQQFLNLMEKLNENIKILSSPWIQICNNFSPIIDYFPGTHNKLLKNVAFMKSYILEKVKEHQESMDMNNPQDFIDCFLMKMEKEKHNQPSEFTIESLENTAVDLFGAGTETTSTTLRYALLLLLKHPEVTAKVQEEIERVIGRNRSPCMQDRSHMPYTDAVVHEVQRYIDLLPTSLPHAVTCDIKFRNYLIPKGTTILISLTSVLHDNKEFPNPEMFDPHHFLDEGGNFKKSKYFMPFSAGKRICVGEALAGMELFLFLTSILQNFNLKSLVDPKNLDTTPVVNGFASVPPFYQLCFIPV
Sequence of Cytochrome P450 2D6 (P10635 whole entry): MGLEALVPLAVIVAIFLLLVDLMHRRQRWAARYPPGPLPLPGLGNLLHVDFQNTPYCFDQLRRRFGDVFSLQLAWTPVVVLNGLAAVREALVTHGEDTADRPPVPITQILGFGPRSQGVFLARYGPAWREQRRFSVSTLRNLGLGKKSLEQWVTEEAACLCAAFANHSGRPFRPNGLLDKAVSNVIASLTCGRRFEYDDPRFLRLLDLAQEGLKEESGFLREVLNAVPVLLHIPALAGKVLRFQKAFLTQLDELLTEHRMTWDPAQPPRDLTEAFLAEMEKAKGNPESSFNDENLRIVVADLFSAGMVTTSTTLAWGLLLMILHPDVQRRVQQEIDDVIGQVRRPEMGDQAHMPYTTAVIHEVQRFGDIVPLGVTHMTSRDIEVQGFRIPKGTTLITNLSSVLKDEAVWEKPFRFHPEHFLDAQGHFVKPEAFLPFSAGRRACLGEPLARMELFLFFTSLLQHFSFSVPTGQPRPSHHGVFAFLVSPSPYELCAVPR

By AC50 is commonly meant the midpoint of the concentration-response curve, whichever way the signal moves. Take `Cc1cc(Nc2ccccc2)nc(N)n1`: the AC50 on Cytochrome P450 1A2 is 8.91 µM (inconclusive).

As a reminder, the IC50 is the concentration at which inhibition is half-maximal. On to `COc1cc(C(C)n2nnc3ccccc32)ccc1O` (configuration not stated), for which the IC50 in test [1] is 108 µM (active).

Consider `Cc1ccc(OCC(=O)NNC(=O)C2CCN(c3ncccn3)CC2)cc1`, for which the concentration at half-maximal activity (AC50) on Cytochrome P450 2C19 is 0.501 µM (inconclusive); on Cytochrome P450 3A4 it was 20 µM (inconclusive); on Cytochrome P450 2C9, 14.1 µM (inconclusive).

As to `COc1ccccc1NS(=O)(=O)c1cc(C(=O)NCCC(C)C)ccc1F`, in test [2], the EC50 is 8.2 µM (active).

For `COc1ccc(/C=N/NC(=O)c2cnccn2)cc1O`, the concentration for half-maximal inhibition (IC50) in test [1] is 85.6 µM (active).

In the case of `CCc1cc(-c2n[nH]cc2-c2nc3ccccc3n2C)c(O)cc1O`, the IC50 in [1] was 83.6 µM (active).

In the case of `Cc1ccnc(Nc2nc(-c3ccc(O)cc3)cs2)c1`, in [1], the IC50 is 105 µM (active).

Take `O=C(NCc1ccco1)c1cc(C(=O)C2CCCCC2)c[nH]1`: the values for the AC50 on Cytochrome P450 2C19 and on Cytochrome P450 2C9 were 14.1 µM (inconclusive) and 8.91 µM (inconclusive), respectively.

Take `C#CCN1C(C)=C(C(=O)OC)[C@@H](c2cccc([N+](=O)[O-])c2)C(C(=O)OCC)=C1C`: the AC50 is 15.8 µM (inconclusive) at Cytochrome P450 2D6 and 12.6 µM (inconclusive) on Cytochrome P450 1A2.

With `COc1cc(/C=C/C(=O)OCC(=O)NC2CCS(=O)(=O)C2)ccc1O` (configuration not stated), the IC50 in test [1] is 47.1 µM (active).

Regarding `CCOc1cc(/C=N/Nc2ncc(C)c(O)n2)ccc1O`, the IC50 in test [1] was 32.1 µM (active).

Take `Cc1ccccc1OCCC(=O)Nc1cc(S(=O)(=O)N2CCCCC2)ccc1N1CCN(C)CC1`: in test [2], the EC50 was 9.71 µM (active).

As for `Cn1c(=O)[nH]c(=O)c2c1nc(NCCCO)n2CCCc1ccccc1`, at Cytochrome P450 2C9, the AC50 was 12.6 µM (inconclusive).

For the molecule `CN1CCc2nc3sc(C(=O)NC(C)(C)C)c(N)c3cc2C1`, the AC50 on Cytochrome P450 2C19 is 31.6 µM (inconclusive); on Cytochrome P450 1A2, 14.1 µM (inconclusive).

As to `CN(Cc1ccccc1)Cc1c(O)ccc2ccccc12`, the 50% inhibitory concentration (IC50) in [1] is 89.3 µM (active).

With `COc1ccc(-c2sc3ccc(OC)cc3c2C#CCCO)cc1`, the EC50 was 7.3 µM (active) in test [3] and 9.32 µM (active) with Streptococcus. The AC50 in test [4] is 2.88 µM (active).

As for `CCOc1cc(N2CCOCC2)c(OCC)cc1NC(=O)c1ccc(C)s1`, the IC50 in test [1] was 70.8 µM (active).

With `C/C(CCN1CCc2nc(-c3ccccc3)c(-c3ccccc3)cc2C1)=N\O[C@@H](C)c1cc(-c2c(C)cc(C)cc2C)no1`, the AC50 on Cytochrome P450 2C19 was 0.00631 µM (inconclusive); on Cytochrome P450 3A4 it was 3.98 µM (inconclusive); at Cytochrome P450 2C9 it was 0.316 µM (inconclusive).

On to `O=C(CSc1ccccc1)Nc1ccc(NC(=O)c2ccco2)cc1`, for which the results for the AC50 on Cytochrome P450 2C19 and on Cytochrome P450 2C9 were 14.1 µM (inconclusive) and 20 µM (inconclusive), respectively.

As for `CCNc1ncc2nc(-c3cc(F)cc(F)c3)c(=O)n(C[C@H]3CCCO3)c2n1`, the figures for the AC50 at Cytochrome P450 1A2 and at Cytochrome P450 3A4 were 3.16 µM (inconclusive) and 15.8 µM (inconclusive), respectively.

As for `COC(=O)c1ccc(C(=O)OCCCc2nc3cc(N)ccc3[nH]2)cc1`, the IC50 in test [1] was 110 µM (active).

Turning to `O=C(Nc1cccc(F)c1)c1cc(S(=O)(=O)N2CCOCC2)ccc1N1CCCC1`, the EC50 in [2] was > 53 µM (inactive).

As to `CC(Oc1ccc(Cl)cc1Cl)C(=O)/C=C/N(C)C` (configuration not stated), the half-maximal activity concentration (AC50) at Cytochrome P450 2D6 is 14.1 µM (inconclusive); at Cytochrome P450 3A4, 25.1 µM (inconclusive); on Cytochrome P450 2C9, 12.6 µM (inconclusive).

As for `Cc1cc(Cl)cc2sc(S)nc12`, the IC50 in [1] was 85.4 µM (active).

As to `CN1/C(=C/C=C(/C#N)C(N)=O)C(C)(C)c2ccccc21`, the figures for the AC50 at Cytochrome P450 3A4 and at Cytochrome P450 2C9 were 22.4 µM (inconclusive) and 28.2 µM (inconclusive), respectively.

`CCN(CC)c1ccc(NC(=O)COc2ccc(-n3cnnn3)cc2)cc1`: the IC50 in test [1] was 63 µM (active).

Take `COc1ccc(CN2CCCC(C(=O)N3CCCC3)C2)cc1` (configuration not stated): the IC50 in test [1] was 109 µM (active).

Take `O=C(O)Cc1cccnc1C(=O)O`: on Cytochrome P450 1A2, the AC50 is 39.8 µM (inconclusive).

As for `Cc1nn(C(C)C(=O)Nc2sc3c(c2C#N)CCCC3)c(C)c1[N+](=O)[O-]` (configuration not stated), the AC50 on Cytochrome P450 2C9 was 3.98 µM (inconclusive).

With `Cc1cccc(CNc2ccnc(-c3ccccc3Cl)n2)c1`, the AC50 on Cytochrome P450 2C9 is 0.794 µM (inconclusive).

As to `CN(C)S(=O)(=O)c1ccc(C(=O)Nc2ccc(CN3CCCC3)cc2)cc1`, at Cytochrome P450 2C9, the AC50 is 1.78 µM (inconclusive).

On to `CC(C)NC(=O)N1CCN(c2ccncc2S(=O)(=O)N2CCOCC2)CC1`, for which the AC50 at Cytochrome P450 2C19 is 39.8 µM (inconclusive); at Cytochrome P450 2C9, 35.5 µM (inconclusive).

For `Cc1ccc(Cn2cnc3c(nnn3Cc3ccc(Cl)cc3)c2=O)cc1`, the AC50 on Cytochrome P450 2C19 was 4.47 µM (inconclusive); on Cytochrome P450 1A2, 25.1 µM (inconclusive).

Turning to `Cc1ccc(CNC(=O)C2(NC(=O)Nc3ccc(C)cc3)CCCCC2)cc1`, the AC50 was 1.78 µM (inconclusive) at Cytochrome P450 2C19 and 3.55 µM (inconclusive) at Cytochrome P450 2C9.

With `O=C(CNC(=O)c1ccco1)N/N=C/c1ccc(O)cc1O`, the IC50 in test [1] was 104 µM (active).

For the molecule `O=C(NCCC1=CCCCC1)C1CCCN(c2nc3ccccc3o2)C1` (configuration not stated), the AC50 at Cytochrome P450 2D6 is 14.1 µM (inconclusive); on Cytochrome P450 1A2 it was 15.8 µM (inconclusive).

For `O=c1c(CCc2ccccc2)nc2cncnc2n1C1CC1`, the AC50 at Cytochrome P450 2C19 was 39.8 µM (inconclusive); on Cytochrome P450 2D6, 15.8 µM (inconclusive); at Cytochrome P450 3A4, 10 µM (inconclusive); on Cytochrome P450 2C9, 25.1 µM (inconclusive).

As for `CCCc1nnc(NC(=O)Cn2c(=O)oc3cc(Br)ccc32)s1`, the EC50 in test [2] was 9.87 µM (active).

For `O=C(CSc1ccc(C(F)(F)F)cc1[N+](=O)[O-])Nc1ccccc1`, the AC50 at Cytochrome P450 1A2 is 1.26 µM (inconclusive); at Cytochrome P450 3A4, 15.8 µM (inconclusive).

Take `COc1ccc2[nH]cc(CCNc3ccnc(-c4c(C)noc4C)n3)c2c1`: the AC50 on Cytochrome P450 2D6 was 12.6 µM (inconclusive); on Cytochrome P450 2C9, 0.794 µM (inconclusive).

As for `COC(=O)c1[nH]c2ccc(Cl)cc2c1NC(=O)Oc1ccccc1`, the IC50 in test [1] was 19.8 µM (active).

In the case of `COc1ccc(-n2c(=O)c(-c3cc(F)cc(F)c3)nc3cnc(N4CCNCC4)nc32)cc1`, the AC50 on Cytochrome P450 1A2 is 12.6 µM (inconclusive); at Cytochrome P450 3A4 it was 25.1 µM (inconclusive).

In the case of `CCOC(=O)c1cnc2c(cnn2C)c1NCCCN(C)C`, the AC50 on Cytochrome P450 1A2 is 22.4 µM (inconclusive).
